Results as given in patent US20080161248A1, “Methods and Compositions for Therapeutic Treatment” (priority 2006, published 2008).

What was measured:
[1] = tested on: LEW responder splenocytes with irradiated BN stimulators (lymphocyte proliferation); experiment: Mixed lymphocyte reaction (MLR) with spleen cells of treated Lewis rats; type: cell-based, rat; conditions: LNS 0694 50, 150, 300 mg/kg i.p. 30 minutes prior to FK506 1 mg/kg i.v.
Description: Animals: 8-9 weeks-old Lewis and Brown Norway male rats were obtained from Charles River Laboratories. […] Treatment: Lewis rats were treated with different single doses of LNS 0694i.p. 30 minutes prior to single i.v. injections of tacrolimus at a concentration of 1 mg/kg as described in the table below. Spleens were collected at 4 hr after administration of FK506 for use in the in vitro mixed lymphocyte reaction (MLR) and Con A assays. […] Mixed lymphocyte reactions: A single cell suspension of the spleen of each rat on test (LEW, responder) was prepared with a Dounce homogenizer and wash-medium. The cell suspension was depleted of red blood cells (treatment with NH4CL/Tris buffer) and washed twice with wash medium before resuspending in complete medium (CM; […] A single cell suspension of splenocytes from five Brown Norway rats (BN, stimulators) was prepared with the same method. The BN splenocytes were pooled and irradiated with 1,500-2,000 rad (cesium source) before use. Varying numbers of responder cells were mixed with a constant number of stimulators (105) in 96-well, U-bottom cell culture plates to give a final responder:stimulator (R:S) ratio of 10:1,5: 1, 1:1 and 0.5:1 in 200 μl CM. […] The results of the MLR assays [thymidine incorporation as counts per minute (CPM)] are expressed as mean ±SD.

[2] = tested on: LEW responders activated with Con A (lymphocyte proliferation); experiment: Con A stimulated proliferation of spleen cells of treated Lewis rats; type: cell-based, rat; conditions: LNS 0694 i.p. 30 minutes prior to FK506 1 mg/kg i.v.
Description: Animals: 8-9 weeks-old Lewis and Brown Norway male rats were obtained from Charles River Laboratories. […] Treatment: Lewis rats were treated with different single doses of LNS 0694i.p. 30 minutes prior to single i.v. injections of tacrolimus at a concentration of 1 mg/kg as described in the table below. Spleens were collected at 4 hr after administration of FK506 for use in the in vitro mixed lymphocyte reaction (MLR) and Con A assays. […] Varying numbers of responder cells were mixed with a constant number of stimulators (105) in 96-well, U-bottom cell culture plates to give a final responder:stimulator (R:S) ratio of 10:1,5: 1, 1:1 and 0.5:1 in 200 μl CM. Control wells for each cell suspension contained 10^5 responders alone in medium and 10^5 pooled, irradiated stimulators alone in medium (separate wells). For a positive proliferative response, each responder (10^5) was treated with 2.5 μg/ml Con A. […] Each well was pulsed with 1 μCi tritiated thymidine for 18±2 hours before automatic harvesting and analysis in a liquid scintillation counter.

[3] = tested on: mouse spleen cells, response to Con A; experiment: In vitro Con A assay on spleen cells; type: cell-based
Excerpt: (§1) Animals: 8-9 weeks-old Lewis and Brown Norway male rats were obtained from Charles River Laboratories. General procedures for animal care and housing was in accordance with the National Research Council (NRC) Guide for the Care and Use of Laboratory Animals (1996) and the Animal Welfare Standards incorporated in 9 CFR Part 3, 1991.
(§2) Spleens were collected for use in in vitro Con A and LPS assays.
Results: FIGS. 8 and 9 show the effect of quercetin and tacrolimus on response of mouse spleen cells to Con A at a high (1.6×10^6 cells/well) and low (8×10^5 cells/well) cell concentration, respectively.
Spleen cells were treated with Con A in the presence of vehicle, tacrolimus, quercetin or two different concentrations of tacrolimus (10^−8.2 and 10^−8.5 M) and increasing doses of quercetin at a high cell concentration (FIG. 14) or at a low cell concentration (FIG. 15). […] There was no significance difference between the effect of quercetin on tacrolimus induced cell suppression in vitro at the different concentrations used for quercetin.

[4] = tested on: mouse spleen cells, response to LPS; experiment: In vitro LPS assay on spleen cells; type: cell-based; conditions: high ([…]10^6 cells/well) and low (8×10^5 cells/well) cell concentration
Excerpt: as §1, §2
FIGS. 10 and 11 show the effect of quercetin and tacrolimus on response of mouse spleen cells to LPS at a high (1.6×10^6 cells/well) and low (8×10^5 cells/well) cell concentration, respectively.

[5] = Pharmacokinetics of FK 506 i.v. with LNS 0694 i.p. in Lewis rats; type: in vivo, rat; conditions: male Lewis rats; FK 506 1 mg/kg i.v.; LNS 0694 i.p. different doses
Description: as §1
Treatment: Lewis rats were treated as described in example 3. Subsets of 3 Lewis rats per group were used for blood sampling at each time point (Groups 2-5) at described in the table below.
Plasma Blood Sample Collection: Whole blood was collected from the retro-orbital sinus under 60:40 CO2:O2 anesthesia using EDTA as the anticoagulant. Sample collection was performed at 9 time points: 5, 15, and 30 min and 1, 2, 4, 6, 8, & 24 hr after administration of FK 506. Three samples were collected from each rat per group (Groups 2-5). The first 2 samples were collected under anesthesia, after which the animal regained consciousness and was retained until the next collection interval. […]
Drug levels were determined in collected whole blood samples using a bioanalytical method developed to detect parent drug levels.
Results: The pharmacokinetics parameters of FK 506 were determined in male Lewis rats after 1 mg/kg i.v. administration alone or in combination with i.p, administration of different doses of LNS 0694 (See FIG. 16).

[6] = Pharmacokinetics of FK506 i.v. with Quercetin i.p. in rats; type: in vivo, rat
Description: as §1, with “weeks-old rats, e.g.,” for “weeks-old”, “rats, can be used.” for “rats were obtained from Charles River Laboratories.”, “are” for “was”
Treatment: Rats are treated as i.v with FK506 and i.p. with Quercetin at two different concentrations, 500 mg/kg or 200 mg/kg. Subsets of 3 Lewis rats per group are used for blood sampling at each time point (Groups 2-5) at described in the table below.
Plasma Blood Sample Collection: Whole blood is collected from the retro-orbital sinus under 60:40 CO2:O2 anesthesia using EDTA as the anticoagulant. Sample collection is performed at 9 time points: 5, 15, and 30 min and 1, 2, 4, 6, 8, & 24 hr after administration of FK 506. Three samples were collected from each rat per group (Groups 2-5). The first 2 samples are collected under anesthesia, after which the animal regained consciousness and is retained until the next collection interval. The third/last sample is also collected under anesthesia, however the animal is euthanatized prior to anesthetic recovery.
Whole blood samples are placed on dry ice after collection and stored frozen at […] (±10° C.) until analysis.
Drug levels are determined in collected samples using bioanalytical methods developed to detect parent drug levels known in the art.

[7] = in vivo; cited from earlier work
mdr1a knockout mice = conditions: cited from earlier work
[8] = higher 200 mg/kg quercetin dose i.p.

effect on calculated AUC (0-infinity) of FK 506 ([6]; Quercetin i.p. different doses, vs control group)	effect on Cmax of FK 506 [6, 8]	effect on Vd of FK 506 [6, 8]	effect on clearance of FK 506 [6, 8]	SMILES	effect on FK 506 inhibitory effect in MLR [1]	effect on FK 506 inhibitory effect, responders activated with Con A [2]	effect on tacrolimus induced cell suppression in vitro ([3]; Con A, tacrolimus 10^-8.2 and 10^-8.5 M, increasing doses of quercetin)	effect on response of spleen cells to Con A (proliferation) ([3]; high ([…]10^6 cells/well) and low (8×10^5 cells/well) cell concentration)	effect on response of spleen cells to LPS (proliferation) [4]	effect on peripheral bioavailability of FK506 [5]	effect on peripheral bioavailability of FK506 ([6]; Quercetin i.p. different doses)	serum half-life [7] [h]	incidence of fetal cleft palate (mdr1a knockout mice) [%]
increases	increase	decrease	decrease	O=c1c(O)c(-c2ccc(O)c(O)c2)oc2cc(O)cc(O)c12 [Quercetin, quercetin]	increased FK 506 inhibitory effect in a dose-dependent manner	increased FK 506 inhibitory effect	did not impair	no significant effect	no significant effect	increases the peripheral bioavailability of FK506 in a dose dependent manner	increases the peripheral bioavailability of FK506 in a dose dependent manner	19 to 25	
				CC[C@H](C)[C@H]1O[C@]2(C=C[C@@H]1C)C[C@@H]1C[C@@H](C/C=C(\C)[C@@H](O[C@H]3C[C@H](OC)[C@@H](O[C@H]4C[C@H](OC)[C@@H](O)[C@H](C)O4)[C@H](C)O3)[C@@H](C)/C=C/C=C3\CO[C@@H]4[C@H](O)C(C)=C[C@@H](C(=O)O1)[C@]34O)O2 [avermectin]									100
